According to US20190099383A1, “Transdermal Delivery of Selexipag Metabolite” (Samos Pharmaceuticals, Inc., priority 2017, published 2019):
Like-named read-outs stand apart in the source and are kept apart here.

What was measured:
[1] = rat; cited from earlier work
prostacyclin IP receptor = prostacyclin IP receptor (Homo sapiens, UniProt P43119); conditions: ACT 333679 versus selexipag; cited from earlier work
[2] = In vitro unenhanced skin flux, Franz diffusion cells; type: in vitro ADME, human; conditions: 168 hour period, saturated solution in 80/20% ethanol/water, no enhancers
Protocol: All in vitro skin permeation studies are conducted using the PermeGear Membrane Transport System. […] Skin flux studies are run for a period of 168 hours. […] The receiver compartment is refilled with fresh receiver medium.

[3] = Saturation concentration of the drug in the receptor medium; type: physicochemical; conditions: pH 7.4 water with 0.44 mg/ml OLETH 20
[4] = Formulation B enhancer system, 2, 4, 8, 12 and 24 hour time points (FIG. 1)
Protocol: One skin donor and three diffusion cells per formulation were used in these in vitro skin permeation experiments. Split thickness dermatomed (approximately at 375 μm) human cadaver skin was used to determine the permeation rate of the selexipag metabolite ACT 333679 in vitro. All in vitro skin permeation studies were conducted using the PermeGear Membrane Transport System (PermeGear, Inc., Hellertown, Pa.). Each Membrane Transport System consists of vertical, jacketed (37° C.±0.5° C.) Franz diffusion cells with magnetic stirrer and 1.7 cm^2 diffusion area.
Skin flux studies were run for a period of 48 hours. At predetermined intervals (3, 24 and 48 hours) after starting the experiment, the entire contents of the receiver compartment were collected for determination of the ACT 333679 concentration by HPLC. The receiver compartment was refilled with fresh receiver medium. The receiver medium was pH 7.4 water with 0.44 mg/ml of OLETH 20 (polyethylene glycol ether of oleyl alcohol) with the saturation concentration of the drug in the receptor medium being 0.23 mg/ml or 2 mg total in the receptor phase. […]
One skin donor and three diffusion cells per formulation were used in these in vitro skin permeation experiments. […] Samples in the receptor phase were obtained at the 2, 4, 8, 12 and 24 hour intervals and the amount of selexipag or ACT333679 was determined by HPLC.

[5] = cited from earlier work
carboxylesterases = conditions: cited from earlier work
[6] = headache, diarrhea, pain in the jaw, nausea and myalgia; cited from earlier work

Chain of prostacyclin IP receptor (P43119 whole entry, the tested form may be a part): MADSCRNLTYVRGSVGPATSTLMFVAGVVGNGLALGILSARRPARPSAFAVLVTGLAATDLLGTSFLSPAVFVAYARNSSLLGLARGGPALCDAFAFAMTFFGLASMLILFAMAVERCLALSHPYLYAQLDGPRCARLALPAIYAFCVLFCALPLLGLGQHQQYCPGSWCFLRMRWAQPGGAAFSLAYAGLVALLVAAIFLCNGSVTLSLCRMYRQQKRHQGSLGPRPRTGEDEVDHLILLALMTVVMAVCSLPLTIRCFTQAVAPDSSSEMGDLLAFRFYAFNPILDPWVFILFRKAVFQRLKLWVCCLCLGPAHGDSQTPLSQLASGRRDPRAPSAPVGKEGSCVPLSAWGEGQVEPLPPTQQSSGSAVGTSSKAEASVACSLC

Row | Compound | oral bioavailability [1] [%] | potency relative to selexipag (prostacyclin IP receptor) | average flux [2] | saturation amount, total in the receptor phase [3] [mg] | saturation concentration of the drug in the receptor medium [3] [mg/mL] | permeation through skin compared with selexipag [4] | effect of presence of food on AUC ([5]; presence of food) [%] | metabolism of selexipag to ACT 333679 (carboxylesterases; carboxylases present in human plasma) | metabolism of selexipag to ACT 333679 (carboxylesterases; human hepatic microsomes) | absorption ([5]; oral) [%] | difference in incidence of side effects between selexipag and placebo [6]
1 | CC(C)N(CCCCOCC(=O)O)c1cnc(-c2ccccc2)c(-c2ccccc2)n1 [ACT 333679] | 57 | at least 16 times | 2.9 micrograms per square centimeter per hour | 2 | 0.23 | higher than that of selexipag | 27 |  |  |  | 
2 | CC(C)N(CCCCOCC(=O)NS(C)(=O)=O)c1cnc(-c2ccccc2)c(-c2ccccc2)n1 [selexipag] |  |  | 1.2 micrograms per square centimeter per hour |  |  |  |  | do not metabolize selexipag to ACT 333679 | metabolized to ACT 333679 from hepatic microsomes | ~60 | higher than 10%
